The values that follow come from patent US6821967B2, “Substituted piperazine derivatives, the preparation thereof and their use as medicaments” (Boehringer Ingelheim Pharma KG, priority 1999, dated 2004).

Each structure is given as a SMILES string.

With `C[C@@H]1CN(c2ccc3ccccc3n2)C[C@H](C)N1CCCCC1(C(=O)NCC(F)(F)F)c2ccccc2Oc2ccccc21` [Example 111, 9-[4-(cis-2,6-dimethyl-4-quinolin-2-yl-piperazin-1-yl)-butyl]-9H-xanthene-9-carboxylic acid-(2,2,2-trifluoro-ethyl)-amide], the melting point was 177 °C.
In the case of `O=C(NCC(F)(F)F)C1(CCCCN2CCN(c3ccc4c(Cl)cccc4n3)CC2)c2ccccc2Oc2ccccc21` [Example 104, 9-{4-[4-(5-chloro-quinolin-2-yl)-piperazin-1-yl]-butyl}-9H-xanthene-9-carboxylic acid-(2,2,2-trifluoro-ethyl)-amide], the melting point is 160 °C.
`O=C(O)CCNC(=O)C1(CCCCN2CCN(c3ccc4ccccc4n3)CC2)c2ccccc2-c2ccccc21` [Example 96, 9-[4-(4-quinolin-2-yl-piperazin-1-yl)-butyl]-9H-fluorene-9-carboxylic acid-(2-carboxy-ethyl)-amide] showed a melting point of 98 to 100 °C.
In turn, `CCn1c(N2CCN(CCCCC3(C(=O)NCc4ccc(F)cc4)c4ccccc4-c4ccccc43)CC2)nc2ccccc21` [Example 61, 9-{4-[4-(1-ethyl-1H-benzimidazol-2-yl)-piperazin-1-yl]-butyl}-9H-fluorene-9-carboxylic acid-4-fluoro-benzylamide] gave a melting point of 166 °C.
Then `C[C@@H]1CN(c2ccc3ccccc3n2)C[C@H](C)N1CCCCC1(C(=O)NCc2ccc(F)cc2)c2ccccc2-c2ccccc21` [Example 65, 9-[4-(cis-2,6-dimethyl-4-quinolin-2-yl-piperazin-1-yl)butyl]-9H-fluorene-9-carboxylic acid-4-fluoro-benzylamide], with 62 °C.
With `O=C(NCC(F)(F)F)C1(CCCCN2CCN(c3ccc4cc(Cl)ccc4n3)CC2)c2ccccc2Oc2ccccc21` [Example 105, 9-{4-[4-(6-chloro-quinolin-2-yl)-piperazin-1-yl]-butyl}-9H-xanthene-9-carboxylic acid-(2,2,2-trifluoro-ethyl)-amide], the melting point was found to be 165 °C.
Then `COc1ccc(CNC(=O)C2(CCCCN3CCN(c4nc5ccccc5s4)CC3)c3ccccc3-c3ccccc32)cc1` [Example 76, 9-[4-(4-benzothiazol-2-yl-piperazin-1-yl)-butyl]-9H-fluorene-9-carboxylic acid-4-methoxy-benzylamide], with 145 °C; and `O=C(NCC(F)(F)F)C1(CCCCN2CCN(c3nc4ccccc4o3)CC2)c2ccccc2Oc2ccccc21` [Example 101, 9-[4-(4-benzoxazol-2-yl-piperazin-1-yl)-butyl]-9H-xanthene-9-carboxylic acid-(2,2,2-trifluoro-ethyl)-amide], with 196 to 197 °C.
Then `C[C@@H]1CN(c2ccc3ccccc3n2)C[C@H](C)N1CCCCC1(C(=O)NCC(F)(F)F)c2ccccc2-c2ccccc21` [Example 42, 9-[4-(cis-2,6-dimethyl-4-quinolin-2-yl-piperazin-1-yl)-butyl]-9H-fluorene-9-carboxylic acid-(2,2,2-trifluoro-ethyl)-amide], with 169 °C; and `COc1cccc2ccc(N3CCN(CCCCC4(C(=O)NCC(F)(F)F)c5ccccc5-c5ccccc54)CC3)nc12` [Example 30, 9-{4-[4-(8-methoxy-quinolin-2-yl)-piperazin-1-yl]-butyl}-9H-fluorene-9-carboxylic acid-(2,2,2-trifluoro-ethyl)-amide], with 74 °C.
Then `O=C(NCC(F)(F)F)C1(CCCCN2CCN(c3ccc4ccccc4n3)CC2)c2ccccc2Oc2ccccc21` [Example 103, 9-[4-(4-quinolin-2-yl-piperazin-1-yl)-butyl]-9H-xanthene-9-carboxylic acid-(2,2,2-trifluoro-ethyl)-amide], with 178 °C.
In the case of `COC(=O)CCNC(=O)C1(CCCCN2CCN(c3ccc4ccccc4n3)CC2)c2ccccc2-c2ccccc21` [Example 94, 9-[4-(4-quinolin-2-yl-piperazin-1-yl)-butyl]-9H-fluorene-9-carboxylic acid-(2-methoxycarbonyl-ethyl)-amide], the melting point is 110 to 112 °C.
Then `C[C@@H]1CN(c2nc3ccccc3s2)C[C@H](C)N1CCCCC1(C(=O)NCC(F)(F)F)c2ccccc2Oc2ccccc21` [Example 110, 9-[4-(4-benzothiazol-2-yl-cis-2,6-dimethyl-piperazin-1-yl)-butyl]-9H-xanthene-9-carboxylic acid-(2,2,2-trifluoro-ethyl)-amide], with 157 °C.
The value for `O=C(NCc1cccs1)C1(CCCCN2CCN(c3ccc4ccccc4n3)CC2)c2ccccc2-c2ccccc21` [Example 90, 9-[4-(4-quinolin-2-yl-piperazin-1-yl)-butyl]-9H-fluorene-9-carboxylic acid-(thiophen-2-ylmethyl)-amide] was 45 to 50 °C; that for `Cn1c(N2CCN(CCCCC3(C(=O)NCc4ccc(F)cc4)c4ccccc4-c4ccccc43)CC2)nc2cccnc21` [Example 63, 9-{4-[4-(3-methyl-3H-imidazo[4,5]-pyridin-2-yl)-piperazin-1-yl]-butyl}-9H-fluorene-9-carboxylic acid-4-fluoro-benzylamide] was 153 °C.
Then `C[C@H]1CN(c2ccc3ccccc3n2)CCN1CCCCC1(C(=O)NCc2ccc(F)cc2)c2ccccc2-c2ccccc21` [Example 64, 9-{4-[(S)-2-methyl-4-quinolin-2-yl-piperazin-1-yl]-butyl}-9H-fluorene-9-carboxylic acid-4-fluoro-benzylamide], with 124 °C; and `CCCNC(=O)C1(CCCCN2CCN(c3nc4ccccc4n3C)CC2)c2ccccc2-c2ccccc21` [Example 91, 9-{4-[4-(1-methyl-1H-benzimidazol-2-yl)-piperazin-1-yl]-butyl}-9H-fluorene-9-carboxylic acid propylamide], with 126 °C; and `C[C@@H]1CN(c2ccc3c(Cl)cccc3n2)C[C@H](C)N1CCCCC1(C(=O)NCc2ccc(F)cc2)c2ccccc2-c2ccccc21` [Example 66, 9-{4-[4-(5-chloro-quinolin-2-yl)-cis-2,6-dimethyl-piperazin-1-yl]-butyl}-9H-fluorene-9-carboxylic acid-4-fluoro-benzylamide], with 136 to 137 °C.
The compound `C[C@@H]1CN(c2ncc3ccccc3n2)C[C@H](C)N1CCCCC1(C(=O)NCc2ccc(F)cc2)c2ccccc2-c2ccccc21` [Example 67, 9-[4-(cis-2,6-dimethyl-4-quinazoline-2-yl-piperazin-1-yl)-butyl]-9H-fluorene-9-carboxylic acid-4-fluoro-benzylamide] gave a melting point of 172 °C.
Then `O=C(NCC(F)(F)F)C1(CCCCN2CCN(c3ccc4ccccc4n3)CC2)c2ccccc2-c2ccccc21` [Example 3, 9-[4-(4-(quinolin-2-yl)-piperazin-1-yl)-butyl]-9H-fluorene-9-carboxylic acid-(2,2,2-trifluoro-ethyl)-amide], with 56 to 57 °C.
The value for `C[C@@H]1CN(c2nc3ccccc3o2)C[C@H](C)N1CCCCC1(C(=O)NCC(F)(F)F)c2ccccc2-c2ccccc21` [Example 46, 9-[4-(4-benzoxazol-2-yl-cis-2,6-dimethyl-piperazin-1-yl)-butyl]-9H-fluorene-9-carboxylic acid-(2,2,2-trifluoro-ethyl)-amide] was 163 to 165 °C; that for `CCn1c(N2CCN(CCCCC3(C(=O)NCC(F)(F)F)c4ccccc4-c4ccccc43)CC2)nc2ccccc21` [Example 11, 9-{4-[4-(1-ethyl-1H-benzimidazol-2-yl)-piperazin-1-yl]-butyl}-9H-fluorene-9-carboxylic acid-(2,2,2-trifluoro-ethyl)-amide] was 55 °C; that for `COc1ccc(CNC(=O)C2(CCCCN3CCN(c4ccc5ccccc5n4)CC3)c3ccccc3-c3ccccc32)c(OC)c1` [Example 82, 9-[4-(4-quinolin-2-yl-piperazin-1-yl)-butyl]-9H-fluorene-9-carboxylic acid-2,4-dimethoxy-benzylamide] was 44 °C.
Then `COc1ccc(CNC(=O)C2(CCCCN3CCN(c4ccc5c(Cl)cccc5n4)CC3)c3ccccc3-c3ccccc32)cc1` [Example 73, 9-{4-[4-(5-chloro-quinolin-2-yl)-piperazin-1-yl]-butyl}-9H-fluorene-9-carboxylic acid-4-methoxy-benzylamide], with 135 to 136 °C; and `Cn1c(N2CCN(CCCCC3(C(=O)NCC(F)(F)F)c4ccccc4Oc4ccccc43)CC2)nc2ccccc21` [Example 102, 9-{4-[4-(1-methyl-1H-benzimidazol-2-yl)-piperazin-1-yl]-butyl}-9H-xanthene-9-carboxylic acid-(2,2,2-trifluoro-ethyl)-amide], with 110 °C.
As to `C[C@H]1CN(c2ccc3ccccc3n2)CCN1CCCCC1(C(=O)NCC(F)(F)F)c2ccccc2Oc2ccccc21` [Example 109, 9-{4-[(S)-2-methyl-4-quinolin-2-yl-piperazin-1-yl]-butyl}-9H-xanthene-9-carboxylic acid-(2,2,2-trifluoro-ethyl)-amide], the melting point was in the range of 52 to 53 °C.
`C[C@@H]1CN(c2nc3ccccc3o2)C[C@H](C)N1CCCCC1(C(=O)NCc2ccc(F)cc2)c2ccccc2-c2ccccc21` [Example 69, 9-[4-(4-benzoxazol-2-yl-cis-2,6-dimethyl-piperazin-1-yl)-butyl]-9H-fluorene-9-carboxylic acid-4-fluoro-benzylamide] came in with a melting point of 153 °C.
Then `O=C(NCC(F)(F)F)C1(CCCCN2CCN(c3nc4ccccc4n3Cc3ccccc3)CC2)c2ccccc2-c2ccccc21` [Example 13, 9-{4-[4-(1-benzyl-1H-benzimidazol-2-yl)-piperazin-1-yl]-butyl}-9H-fluorene-9-carboxylic acid-(2,2,2-trifluoro-ethyl)-amide], with 60 °C; and `C[C@@H]1CN(c2ccc3ccccc3n2)CCN1CCCCC1(C(=O)NCC(F)(F)F)c2ccccc2-c2ccccc21` [Example 39, 9-{4-[(R)-2-methyl-4-quinolin-2-yl-piperazin-1-yl]-butyl}-9H-fluorene-9-carboxylic acid-(2,2,2-trifluoro-ethyl)-amide], with 102 °C.

A word on the melting point: it is the temperature of the solid-liquid transition.
